pKd: −log10 of the molar value.
Target: T1, HuR (Homo sapiens, UniProt Q15717)
T1 construct: gene ELAVL1; full-length HuR (326 residues)
Assay: SPR steady state (Biacore T200, immobilized HuR); supported by concentration-dependent positive DSF shift
Type: binding

T1 sequence (Q15717 whole entry): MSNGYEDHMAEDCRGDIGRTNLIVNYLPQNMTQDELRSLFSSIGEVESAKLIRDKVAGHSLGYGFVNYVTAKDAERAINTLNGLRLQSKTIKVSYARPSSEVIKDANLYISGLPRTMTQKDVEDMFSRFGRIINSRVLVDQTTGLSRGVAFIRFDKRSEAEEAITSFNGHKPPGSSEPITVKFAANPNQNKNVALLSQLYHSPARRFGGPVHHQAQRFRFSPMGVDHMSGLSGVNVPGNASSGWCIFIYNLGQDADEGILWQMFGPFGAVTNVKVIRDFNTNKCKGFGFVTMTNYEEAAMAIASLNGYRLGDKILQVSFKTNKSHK

pKd: 3.62
Compound: Cc1ccc(C(=O)Nc2ccc(S(=O)(=O)O)c3cc(S(=O)(=O)O)cc(S(=O)(=O)O)c23)cc1NC(=O)c1cccc(NC(=O)Nc2cccc(C(=O)Nc3cc(C(=O)Nc4ccc(S(=O)(=O)O)c5cc(S(=O)(=O)O)cc(S(=O)(=O)O)c45)ccc3C)c2)c1 [suramin]

From paper PMC6308099, “Suramin, screened from an approved drug library, inhibits HuR functions and attenuates malignant phenotype of oral cancer cells” (Cancer Medicine, 2018)
